Laboratory results: patent US9346839B2
Where two headings read alike, the source gives them in different places.

Tests used:
[1] = target: ABAD (Homo sapiens (Human), UniProt Q99714); experiment: Inhibition of reduction of S-acetoacetyl-CoA (SAAC) by ABAD (ABAD enzymatic activity); assay type: biochemical
Description: Assay of ABAD Enzymatic Activity. […] Before the assay, all the assay components except SAAC were pre-incubated for 5 minutes, and the reaction started with the addition of SAAC into the reaction mix. The reaction was carried out for a total 6 minutes at room temperature under steady-state conditions, and the decrease of NADH absorbance at 340 nm was determined every 10 seconds. Kinetic data were analyzed by PRISM (Scitech, San Diego, Calif.) to determine IC50 values and Ki.

[2] = system: SK-N-SH cells; experiment: ATP levels in Aβ-treated cells; assay type: cell-based; conditions: for ATP levels in Aβ-treated cells: 5 μM Aβ1-42 plus 1 μM compound; for ATP levels, inhibitor alone: without Aβ
Description: Forty-eight hour later, ATP levels (μmol mg^−1 protein) were measured in cell lysates.
Adenosine-5′-Triphosphate (ATP) Levels. To determine the effect of ABAD inhibitors on Aβ-induced impairment in energy metabolism, ATP levels were measured. […] ATP levels were measured in the cell lysates. […] Therefore, ABAD inhibitors can block mitochondrial dysfunction mediated by Aβ.

[3] = Solubility in solvents during method development; assay type: physicochemical
Description: Method Development. During the development of a detection method for analytes 4, 8 and 15, multiple solvents were tested to find the optimal mobile phase. […] Acetonitrile was selected for better peak shape and compatibility with serum/brain protein precipitation. Compounds 8 and 15 were chosen as IS, because of their structural similarity. Selected reaction monitoring (SRM) acquisitions were used for sensitivity and extended dynamic range. The cone voltage and collision energy were optimized for 4, 8 and 15 and the IS by continuously infusing a mixture of the two. The optimum cone voltage was 30V.

[4] = system: SK-N-SH cells; experiment: Mitochondrial cytochrome c oxidase (CcO) activity in Aβ-treated cells; assay type: cell-based; conditions: for CcO activity, inhibitor alone: 1 μM inhibitor alone, without Aβ; for Aβ-mediated decrease of CcO activity: 5 μM oligomer Aβ1-42 plus 1 μM compound, 48 hours
Description: SK-NSH cells were treated with 5 μM oligomer Aβ plus 1 μM of ABAD inhibitor; inhibitor alone; vehicle (VEH) without inhibitor; or Aβ alone. Forty-eight hour later, CcO activity (μmol protein mg^−1 min^−1) was measured in cell lysates.
Method of Measurement of Mitochondrial Cytochrome c Oxidase (CcO) Activity. The CcO activity was measured according to known methods (Du, et al. (2008) Nat. Med. 14:1097-105) with a cytochrome c oxidase kit (Sigma). In brief, SK-N-SH cells were incubated with ABAD inhibitor and oligomer Aβ for 48 hours. After washing the cells twice with PBS, the cells were collected and concentration was determined by the Bradford method. A suitable volume of cells and enzyme solution was added to 475 μl assay buffer. The reaction was triggered by the addition of 25 μl freshly prepared ferrocytochrome C substrate solution into the cuvette. Changes in OD550 nm were recorded immediately with an Amersham Biosciences ULTROSPECT 3100 pro spectrophotometer.
Cytochrome C Oxidase (CcO) Activity. To assess the effect of ABAD inhibitor on […] mitochondrial respiratory function, CcO activity was determined.

[5] = Stability of standards under temperature and storage conditions; assay type: physicochemical; conditions: standards in methanol; 25° C. short-term, −20° C. for twenty days
Description: Stability. The stability of compounds 4, 8, and 15 was evaluated in ACSF, plasma, and brain matrices under various temperature and storage conditions. Stability at room temperature was studied by analyzing samples at 25° C. for 2 and 4 hours and stability at −80° C. was checked for one month. Samples were analyzed after three (−80° C. to 25° C.) freeze-thaw cycles. Stability studies were performed at three concentrations.
Stability The stability of ABAD compounds were determined under different temperature and storage conditions. 4, 8 and 15 standards were dissolved in methanol and were subjected short-term exposure at 25° C. for and 4 hours long-term storage conditions were assessed at −20° C. for twenty days.

[6] = Table 6, reduction of SAAC by ABAD, read-out: IC50
[7] = Table 6, reduction of SAAC by ABAD, read-out: Ki
[8] = Table 7, read-out: ABAD Enzymatic Activity IC50
[9] = Table 7, read-out: ABAD Enzymatic Activity Ki

ABAD, sequence (Q99714 whole entry): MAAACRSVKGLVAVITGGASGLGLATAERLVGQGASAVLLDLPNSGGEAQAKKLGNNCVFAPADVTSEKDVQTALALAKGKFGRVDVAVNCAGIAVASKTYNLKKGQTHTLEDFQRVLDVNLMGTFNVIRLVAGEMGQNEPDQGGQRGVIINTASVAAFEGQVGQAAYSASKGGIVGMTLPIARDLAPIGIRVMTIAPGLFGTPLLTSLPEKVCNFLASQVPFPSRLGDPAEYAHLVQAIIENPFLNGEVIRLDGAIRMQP

**Q.** For `COc1ccc2nc(N[C@@H](c3ccc(O)cc3)P(=O)(OC)OC)sc2c1` (racemic) [Compound 8, Dimethyl ((4-hydroxyphenyl)((6-methoxybenzo[d]thiazol-2-yl)amino)methyl)phosphonate], which IC50 [1, 6] is on record?
**A.** The IC50 was 259 µM.

**Q.** And the Ki [1, 7]?
**A.** Its Ki is 70.6 µM.

**Q.** What about the IC50 [1, 8] of the same compound?
**A.** Its IC50 is 52.7 µM.

**Q.** And the Ki [1, 9]?
**A.** Its Ki is 14.9 µM.

**Q.** What about the “inhibitory effect on SAAC reduction by ABAD” value ([1]; in words) of the same compound?
**A.** Its value is “most potent inhibitory effect”.

**Q.** What about the “ATP levels in Aβ-treated cells” value [2] of the same compound?
**A.** Its value is “rescued ATP levels”.

**Q.** What about the “ATP levels, inhibitor alone” value [2] of the same compound?
**A.** Its value is “comparable to cells treated with vehicle alone without Aβ”.

**Q.** What about the “solubility in methanol or acetonitrile” value [3] of the same compound?
**A.** The value was “dissolved readily in methanol or acetonitrile”.

**Q.** What about the solubility in water [3] of the same compound?
**A.** Its solubility in water is “dissolved partially in water”.

**Q.** And the “CcO activity, inhibitor alone” value [4]?
**A.** The value was “no effect on CcO activity without Aβ”.

**Q.** What about the “Aβ-mediated decrease of CcO activity” value [4] of the same compound?
**A.** The value was “reversed the Aβ-mediated decrease of CcO activity”.

**Q.** And the “stability, variability across all samples” value [5]?
**A.** The value was “less than 10 % (RSD)”.

**Q.** What does the source list for `COC(=O)c1cc([C@H](Nc2nc3ccc(OC)cc3s2)P(=O)(OC)OC)ccc1O` [Compound 4, Methyl 5-((dimethoxyphosphoryl)((6-methoxybenzo[d]thiazol-2-yl)amino)methyl)-2-hydroxybenzoate]?
**A.** IC50 [1, 6]: 19.6 µM; Ki [1, 7]: 5.5 µM; IC50 [1, 8]: 341 ± 68.7 µM; Ki [1, 9]: 96.6 ± 19.4 µM; inhibitory effect on SAAC reduction by ABAD ([1]; in words): modest inhibitory effect; ATP levels in Aβ-treated cells [2]: rescued ATP levels; ATP levels, inhibitor alone [2]: comparable to cells treated with vehicle alone without Aβ; solubility in methanol or acetonitrile [3]: dissolved readily in methanol or acetonitrile; solubility in water [3]: dissolved partially in water; CcO activity, inhibitor alone [4]: no effect on CcO activity without Aβ; Aβ-mediated decrease of CcO activity [4]: reversed the Aβ-mediated decrease of CcO activity; stability, variability across all samples [5]: less than 10 % (RSD)

**Q.** With `COc1ccc2nc(N[C@@H](c3ccc(F)cc3)P(=O)(OC)OC)sc2c1` [Compound 15, Dimethyl ((4-fluorophenyl)((6-methoxybenzo[d]thiazol-2-yl)amino)methyl)phosphonate] as the compound, how does the IC50 [1, 8] read?
**A.** Its IC50 is 1260 ± 199 µM.

**Q.** What about the Ki [1, 9] of the same compound?
**A.** The Ki was 356 ± 56.1 µM.

**Q.** And the “inhibition of SAAC reduction by ABAD” value ([1]; at 10 μM)?
**A.** The value was “did not inhibit”.

**Q.** What about the “inhibitory effect on SAAC reduction by ABAD” value ([1]; at 100 or 400 μM) of the same compound?
**A.** Its value is “slight inhibitory effect”.

**Q.** What about the “ATP levels in Aβ-treated cells” value [2] of the same compound?
**A.** The value was “rescued ATP levels”.

**Q.** And the “ATP levels, inhibitor alone” value [2]?
**A.** The value was “comparable to cells treated with vehicle alone without Aβ”.

**Q.** And the “solubility in methanol or acetonitrile” value [3]?
**A.** The value was “dissolved readily in methanol or acetonitrile”.

**Q.** And the solubility in water [3]?
**A.** The solubility in water was “dissolved partially in water”.

**Q.** And the “CcO activity, inhibitor alone” value [4]?
**A.** Its value is “no effect on CcO activity without Aβ”.

**Q.** And the “Aβ-mediated decrease of CcO activity” value [4]?
**A.** The value was “reversed the Aβ-mediated decrease of CcO activity”.

**Q.** What about the “stability, variability across all samples” value [5] of the same compound?
**A.** Its value is “less than 10 % (RSD)”.
